The record followed here is patent US7351728B2, “Oxazolyl-aryloxyacetic acid derivatives and their use as PPAR agonists” (Eli Lilly and Company, priority 2003, dated 2008).

Data set [1] concerns HuapoAI transgenic mice. Nature of the data set: Evaluation of triglyceride and cholesterol level in HuapoAI transgenic mice. Type of data set: in vivo. As to conditions: Mus musculus, 168 h, 30 mg/kg daily oral gavage 7 days. On the procedure: Five to six week old male mice, transgenic for human apoAI [C57Bl/6-tgn(apoa1)lrub, Jackson Laboratory, Bar Harbor, Me.] were housed five per cage (10″×20″×8″ with aspen chip bedding) with food (Purina 5001) and water available at all times. After an acclimation period of 2 weeks, animals were individually identified by ear notches, weighed, and assigned to groups based on body weight. Beginning the following morning, mice were dosed daily by oral gavage for 7 days using a 20 gauge, 1½″ curved disposable feeding needle (Popper & Sons). Treatments were test compounds (30 mg/kg), a positive control (fenofibrate, 100 mg/kg) or vehicle [1% carboxymethylcellulose (w/v)/0.25% Tween80 (w/v); 0.2 ml/mouse]. Prior to termination on day 7, mice were weighed and dosed. Three hours after dosing, animals were anesthetized by inhalation of isoflurane (2-4%; Abbott Laboratories, Chicago, Ill.) and blood obtained via cardiac puncture (0.7-1.0 ml). Whole blood was transferred to serum separator tubes (Vacutainer SST), chilled on ice, and permitted to clot. Serum was obtained after centrifugation at 4° C. and frozen until analysis for triglycerides, total cholesterol, compound levels, and serum lipoprotein profile by fast protein liquid chromatography (FPLC) coupled to an inline detection system. After sacrifice by cervical dislocation, the liver, heart and epididymal fat pads were excised and weighed.
The animals dosed with vehicle had average triglycerides values of 60-80 mg/dl, which were reduced by the positive control fenofibrate (33-58 mg/dl with a mean reduction of 37%). The animals dosed with vehicle had average total serum cholesterol values of 140-180 mg/dl, which were increased by fenofibrate (190-280 mg/dl, with a mean elevation of 41%). […] Fenofibrate increased the amount of HDLc (68-96 v-sec with a mean percent increase of 48%).
Glucose was measured colorimetrically using commercially purchased reagents (Sigma #315-500). According to the manufacturers, the procedures were modified from published work (McGowan, M. W., Artiss, J. D., Strandbergh, D. R. & Zak, B. Clin Chem, 20:470-5 (1974) and Keston, A. Specific colorimetric enzymatic analytical reagents for glucose. Abstract of papers 129th Meeting ACS, 31C (1956).); and depend on the release of a mole of hydrogen peroxide for each mole of analyte, coupled with a color reaction first described by Trinder (Trinder, P. Determination of glucose in blood using glucose oxidase with an alternative oxygen acceptor. Ann Clin Biochem, 6:24 (1969)). The absorbance of the dye produced is linearly related to the analyte in the sample. The assays were further modified in our laboratory for use in a 96 well format. Standards (Sigma #339-11, Sigma #16-11, and Sigma #CC0534 for glucose triglycerides and total cholesterol, respectively), quality control plasma (Sigma # A2034), and samples (2 or 5 μl/well) were measured in duplicate using 200 μl of reagent. An additional aliquot of sample, pipetted to a third well and diluted in 200 μl water, provided a blank for each specimen. Plates were incubated at room temperature (18, 15, and 10 minutes for glucose, triglycerides and total cholesterol, respectively) on a plate shaker (DPC Micormix 5) and absorbance read at 500 nm (glucose and total cholesterol) or 540 nm (triglycerides) on a plate reader (Wallac Victor 1420). Sample absorbances were compared to a standard curve (100-800, 10-500, and 100-400 mg/dl for glucose, triglycerides and total cholesterol, respectively). Values for the quality control sample were always within the expected range and the coefficient of variation for samples was below 10%. All samples from an experiment were assayed at the same time to minimize inter-assay variability.
Serum lipoproteins were separated and cholesterol quantitated with an in-line detection system. Sample was applied to a Superose® 6 HR 10/30 size exclusion column (Amersham Pharmacia Biotech) and eluted with phosphate buffered saline-EDTA at 0.5 ml/min. […]

Molecules are shown by their SMILES.

For `C#Cc1ccc(-c2nc(CCOc3ccc(OC(C)(C)C(=O)O)cc3)c(C)o2)cc1` [Example 11, 2-(4-{2-[2-(4-Ethynylphenyl)-5-methyloxazol-4-yl]ethoxy}phenoxy)-2-methylpropionic acid], the melting point (as a rule, the temperature of the solid-liquid transition) fell in the range of 137 to 139 °C.

`C#Cc1cccc(-c2nc(CCOc3ccc(OC(C)(C)C(=O)O)cc3)c(C)o2)c1` [Example 10, 2-(4-{2-[2-(3-Ethynylphenyl)-5-methyloxazol-4-yl]ethoxy}phenoxy)-2-methylpropionic acid] yielded a melting point of 131 to 134 °C.

Take `Cc1oc(-c2ccccc2)nc1CCOc1cccc(OC(C)(C)C(=O)O)c1` [Example 23, 2-methyl-2-{3-[2-(5-methyl-2-phenyloxazol-4-yl)ethoxy]phenoxy}propionic acid]: the melting point lay in the range of 140 to 141 °C.

Turning to `Cc1oc(-c2ccccc2)nc1COc1ccc(OC(C)(C)C(=O)O)cc1` [Example 4, 2-Methyl-2-[4-(5-methyl-2-phenyloxazol-4-ylmethoxy)phenoxy]propionic acid], the melting point was in the range of 136 to 138 °C.

As to `CC(C)(Oc1ccc(OCCc2coc(-c3ccccc3)n2)cc1)C(=O)[O-].[Na+]` [Example 3, Sodium 2-methyl-2-{4-[2-(2-phenyloxazol-4-yl)ethoxy]phenoxy}propionate], the melting point was in the range of 199 to 200 °C. In addition, in data set [1] (percent increase in FPLC HDLc area under the curve), the change in vivo at 30 mg/kg is 63%. In addition, the inhibition in vivo at 30 mg/kg in data set [1] (serum, male human apoAI transgenic mice, read-out: % Triglyceride Reduction) worked out at 66%.

On to `C=Cc1cccc(-c2nc(CCOc3ccc(OC(C)(C)C(=O)O)cc3)c(C)o2)c1` [Example 10A, 2-Methyl-2-(4-{2-[5-methyl-2-(3-vinylphenyl)oxazol-4-yl]ethoxy}phenoxy)propionic acid], for which the melting point fell in the range of 137 to 139 °C.

Consider `Cc1sc(-c2ccccc2)nc1CCOc1ccc(OC(C)(C)C(=O)O)cc1` [Example 35, 2-Methyl-2-{4-[2-(5-methyl-2-phenyl-thiazol-4-yl)-ethoxy]phenoxy}-2-methyl-propionic acid], for which the melting point worked out at 163.5 °C.

`Cc1cc(OCCc2nc(-c3ccccc3)oc2C)ccc1OCC(=O)O` [Example 25, {2-Methyl-4-[2-(5-methyl-2-phenyloxazol-4-yl)ethoxy]phenoxy}acetic acid] registered a melting point of 133 °C.
